According to patent US10457644B2, “Pyrazol compounds as EAAT3 inhibitors” (Hoffmann-La Roche Inc., priority 2016, dated 2019):
One block for each molecule: values may come before it.

Columns and labels:
human EAAT3 = target: T1, human EAAT3 (Homo sapiens, UniProt P43005); test: FLIPR Membrane Potential (FMP) assay; format: cell-based; conditions: HEK-293 cells stably expressing human EAAT3; L-glutamate as agonist at 80% of maximum response; antagonist applied 15 min before; Kb by Cheng-Prusoff from IC50
T1 construct: expressed in transfected cells
T1 sequence (P43005 1-524): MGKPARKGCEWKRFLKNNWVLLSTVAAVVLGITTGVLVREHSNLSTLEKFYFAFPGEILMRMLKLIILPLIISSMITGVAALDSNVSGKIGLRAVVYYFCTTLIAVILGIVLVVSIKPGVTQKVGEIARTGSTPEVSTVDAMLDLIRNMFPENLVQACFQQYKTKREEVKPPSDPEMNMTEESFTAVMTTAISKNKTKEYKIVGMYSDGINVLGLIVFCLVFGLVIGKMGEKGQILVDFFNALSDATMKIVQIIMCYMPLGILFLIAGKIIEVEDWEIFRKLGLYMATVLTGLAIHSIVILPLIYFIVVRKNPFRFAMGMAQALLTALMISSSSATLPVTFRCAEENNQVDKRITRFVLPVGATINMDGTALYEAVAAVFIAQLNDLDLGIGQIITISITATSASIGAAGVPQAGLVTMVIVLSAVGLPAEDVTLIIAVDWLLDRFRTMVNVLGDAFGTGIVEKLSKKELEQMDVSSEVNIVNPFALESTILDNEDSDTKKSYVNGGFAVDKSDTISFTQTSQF
Protocol: The FLIPR Membrane Potential (FMP) Assay
HEK-293 cells stably expressing human EAAT3 were seeded at 55 000 cells/well in growth medium (DMEM glutamate free (Invitrogen 11960-044), 1% Pen Strep (10 ml/l GIBCO BRL N^o 15140-023), 10% FCS non dialysed heat inactivated, 5 mg/l puromycin) in poly-D-lysine treated 96-well black microtiter plates with clear-bottom. After 24 h, the growth medium was removed and 100 μl/well of Krebs buffer (140 mM NaCl, 4.7 mM KCl, 2.5 mM CaCl2, 1.2 mM MgCl2, 11 mM HEPES, 10 mM D-glucose, pH=7.4) added. The cells were then loaded by adding 100 μl/well FMP assay dye (FLIPR Membrane Potential assay reagent, Molecular Devices). The 96-well plates were then incubated at 37° C. for 1 h. The depolarization of the cells will cause more dye to enter in the cells, where it will bind to intracellular proteins and lipids and cause an increase in the fluorescence signal. Antagonist potency at human EAAT3 was determined by using L-glutamate as agonist at a concentration which gives 80% of the maximum response. The antagonists were applied 15 min before the application of the agonist L-glutamate. The assays were performed at room temperature and measurements done by using a Fluorometric Imaging Plate Reader (FLIPR, Molecular Devices) and filter #2. Responses were measured as peak increase in fluorescence minus basal (i.e. fluorescence without addition of L-glutamate). Kb was determined using the Cheng-Prusoff equation Kb=IC50/[1+(A/EC50)], where IC50 is the concentration of the antagonist producing 50% inhibition, A is the concentration of the agonist against which the IC50 is being determined ([…]) and EC50 is the concentration of the agonist producing […].

SMILES: CC(C)(C)NC(=O)c1cc(-c2ccc(C(F)(F)F)cc2)cc(-c2ccnn2CC2CC2)c1 [Example 44, N-tert-Butyl-3-[2-(cyclopropylmethyl)-pyrazol-3-yl]-5-[4-(trifluoromethyl)-phenyl]-benzamide]
Kb (human EAAT3): 400 nM
melting point: 69 °C

SMILES: CC(C)(C)NC(=O)c1cc(-c2ccc(Cl)cc2)cc(-c2ccnn2C2CC2)c1 [Example 45, N-tert-Butyl-3-(4-chlorophenyl)-5-(2-cyclopropyl-pyrazol-3-yl)-benzamide]
Kb (human EAAT3): 260 nM
melting point: 72 °C

SMILES: CC(C)c1ccc(-c2cc(C(=O)NC(C)(C)C)cc(-c3ccnn3C(C)C)c2)cc1 [Example 10, N-tert-Butyl-3-(4-propan-2-yl-phenyl)-5-(2-propan-2-yl-pyrazol-3-yl)-benzamide]
Kb (human EAAT3): 550 nM
melting point: 86 °C

SMILES: CC(C)c1ccc(-c2cc(C(=O)NC(C)(C)C)cc(-c3ccnn3C(C)(C)C)c2)cc1 [Example 34, N-tert-Butyl-3-(2-tert-butyl-pyrazol-3-yl)-5-(4-propan-2-yl-phenyl)-benzamide]
Kb (human EAAT3): 600 nM
melting point: 209.5 °C

SMILES: CC(C)(NC(=O)c1cc(-c2ccc(Cl)cc2)cc(-c2ccnn2C(C)(C)C)c1)C1CC1 [Example 35, 3-(2-tert-Butyl-pyrazol-3-yl)-5-(4-chlorophenyl)-N-(2-cyclopropyl-propan-2-yl)-benzamide]
Kb (human EAAT3): 920 nM
melting point: 166 °C

SMILES: CC(C)(C)NC(=O)c1cc(-c2ccc(Cl)c(F)c2)cc(-c2ccnn2C(C)(C)C)c1 [Example 33, N-tert-Butyl-3-(2-tert-butyl-pyrazol-3-yl)-5-(4-chloro-3-fluoro-phenyl)-benzamide]
Kb (human EAAT3): 290 nM
melting point: 225 °C

SMILES: Cc1ccc(-c2cc(C(=O)NC(C)(C)C)cc(-c3ccnn3C(C)C)c2)cc1F [Example 20, N-tert-Butyl-3-(3-fluoro-4-methyl-phenyl)-5-(2-propan-2-yl-pyrazol-3-yl)-benzamide]
Kb (human EAAT3): 360 nM
melting point: 81 °C

SMILES: CC(C)(C)NC(=O)c1cc(-c2ccc(C(F)(F)F)cc2)cc(-c2ccnn2C(C)(C)C)c1 [Example 3, N-tert-Butyl-3-(2-tert-butyl-pyrazol-3-yl)-5-[4-(trifluoromethyl)-phenyl]-benzamide]
Kb (human EAAT3): 280 nM
melting point: 205 °C

SMILES: CC(C)n1nccc1-c1cc(C(=O)NC(C)(C)C)cc(-c2ccc(Cl)cc2)c1 [Example 5, N-tert-Butyl-3-(4-chlorophenyl)-5-(2-propan-2-yl-pyrazol-3-yl)-benzamide]
Kb (human EAAT3): 170 nM
melting point: 84 °C

SMILES: CC(C)n1nccc1-c1cc(C(=O)NC(C)(C)C)cc(-c2ccc(C3CC3)cc2)c1 [Example 14, N-tert-Butyl-3-(4-cyclopropyl-phenyl)-5-(2-propan-2-yl-pyrazol-3-yl)-benzamide]
Kb (human EAAT3): 880 nM
melting point: 83 °C

Other lines, results leading:

Kb (human EAAT3): 250 nM
melting point: 173 °C
SMILES: COc1ccc(-c2cc(C(=O)NC(C)(C)C)cc(-c3ccnn3C(C)(C)C)c2)cc1 [Example 31, N-tert-Butyl-3-(2-tert-butyl-pyrazol-3-yl)-5-(4-methoxy-phenyl)-benzamide]

Kb (human EAAT3): 890 nM
melting point: 72.5 °C
SMILES: CCC(C)(C)NC(=O)c1cc(-c2ccc(Cl)cc2)cc(-c2ccnn2C(C)C)c1 [Example 19, 3-(4-Chlorophenyl)-N-(2-methyl-butan-2-yl)-5-(2-propan-2-yl-pyrazol-3-yl)-benzamide]

Kb (human EAAT3): 310 nM
melting point: 87 °C
SMILES: CC(C)n1nccc1-c1cc(C(=O)NC(C)(C)C)cc(-c2ccc(Cl)c(F)c2)c1 [Example 16, N-tert-Butyl-3-(4-chloro-3-fluoro-phenyl)-5-(2-propan-2-yl-pyrazol-3-yl)-benzamide]

Kb (human EAAT3): 890 nM
melting point: 81 °C
SMILES: CC(C)(C)n1nccc1-c1cc(C(=O)NC(C)(C)C(F)(F)F)cc(-c2ccc(Cl)cc2)c1 [Example 42, 3-(2-tert-Butylpyrazol-3-yl)-5-(4-chlorophenyl)-N-(1,1,1-trifluoro-2-methyl-propan-2-yl)-benzamide]

Kb (human EAAT3): 300 nM
melting point: 168 °C
SMILES: CC(C)n1nccc1-c1cc(C(=O)NC(C)(C)C)cc(-c2ccccc2)c1 [Example 13, N-tert-Butyl-3-phenyl-5-(2-propan-2-yl-pyrazol-3-yl)-benzamide]

Kb (human EAAT3): 110 nM
melting point: 66 °C
SMILES: CC(C)(C)NC(=O)c1cc(-c2ccc(F)cc2)cc(-c2ccnn2C2CC2)c1 [Example 23, N-tert-Butyl-3-(2-cyclopropyl-pyrazol-3-yl)-5-(4-fluorophenyl)-benzamide]

Kb (human EAAT3): 390 nM
melting point: 82 °C
SMILES: CC(C)n1nccc1-c1cc(C(=O)NC(C)(C)C)cc(-c2ccc(F)c(F)c2)c1 [Example 8, N-tert-Butyl-3-(3,4-difluorophenyl)-5-(2-propan-2-yl-pyrazol-3-yl)-benzamide]

Kb (human EAAT3): 620 nM
melting point: 77.5 °C
SMILES: CC(C)n1nccc1-c1cc(C(=O)NC(C)(C)C(F)(F)F)cc(-c2ccc(Cl)cc2)c1 [Example 40, 3-(4-Chlorophenyl)-5-(2-propan-2-yl-pyrazol-3-yl)-N-(1,1,1-trifluoro-2-methyl-propan-2-yl)-benzamide]

Kb (human EAAT3): 240 nM
melting point: 191 °C
SMILES: Cn1nccc1-c1cc(C(=O)NC(C)(C)C)cc(-c2ccc(Cl)cc2)c1 [Example 1, N-tert-Butyl-3-(4-chlorophenyl)-5-(2-methyl-pyrazol-3-yl)-benzamide]
